Assay [1] concerns the target T1, ACE2 (angiotensin-I converting enzyme 2) (Homo sapiens, UniProt Q9BYF1). Nature of the assay: SPR. The assay is classed as binding.
Assay [2] concerns the target T1, ACE2 (angiotensin-I converting enzyme 2). Nature of the assay: SPR. The class given is binding. The source holds these as a separate data set.

As usually defined, the Kd is the equilibrium constant for the complex coming apart. A high value points to lower affinity.

SMILES strings stand for the structures. Where two headings read alike, the source gives them in different places.

T1 sequence (Q9BYF1 18-805): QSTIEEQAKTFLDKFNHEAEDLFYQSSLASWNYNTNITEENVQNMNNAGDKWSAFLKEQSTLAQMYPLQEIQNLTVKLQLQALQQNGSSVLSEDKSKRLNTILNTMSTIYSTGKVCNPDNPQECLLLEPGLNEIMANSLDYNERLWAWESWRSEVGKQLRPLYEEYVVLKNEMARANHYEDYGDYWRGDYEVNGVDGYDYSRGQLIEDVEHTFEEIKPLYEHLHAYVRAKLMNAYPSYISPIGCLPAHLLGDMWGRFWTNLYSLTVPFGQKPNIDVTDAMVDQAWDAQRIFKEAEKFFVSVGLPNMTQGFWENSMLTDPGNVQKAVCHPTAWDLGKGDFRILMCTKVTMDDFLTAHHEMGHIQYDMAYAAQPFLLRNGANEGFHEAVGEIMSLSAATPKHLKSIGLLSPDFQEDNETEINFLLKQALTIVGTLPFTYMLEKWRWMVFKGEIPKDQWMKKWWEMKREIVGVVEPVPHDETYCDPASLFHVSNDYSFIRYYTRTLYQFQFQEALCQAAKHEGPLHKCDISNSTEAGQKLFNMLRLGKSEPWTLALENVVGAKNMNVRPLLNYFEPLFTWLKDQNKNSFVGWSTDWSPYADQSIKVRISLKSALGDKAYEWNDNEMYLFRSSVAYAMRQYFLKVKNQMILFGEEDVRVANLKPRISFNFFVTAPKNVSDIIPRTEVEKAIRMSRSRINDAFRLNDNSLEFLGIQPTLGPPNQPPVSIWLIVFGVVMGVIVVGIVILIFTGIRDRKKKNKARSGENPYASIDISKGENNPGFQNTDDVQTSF

In the case of `N=C(N)c1ccc(/N=N/Nc2ccc(C(=N)N)cc2)cc1` [DIZE, diminazene aceturate], the Kd in assay [1] came out at 4.9 µM.
In assay [2], `CC(=O)/N=c1/sc(S(N)(=O)=O)nn1C` [Met, methazolamide] gave a Kd of 70 µM.
Same read-out and setting: the figure for `Cc1ccc(NC(=O)c2ccc(CN3CCN(C)CC3)cc2)cc1Nc1nccc(-c2cccnc2)n1` [Ima, imatinib] is 12.7 µM.
Regarding `C[C@]1(OC(=O)/C=C/c2ccccc2)C[C@@H](O)[C@]2(O)C=CO[C@@H](O[C@@H]3O[C@H](CO)[C@@H](O)[C@H](O)[C@H]3O)[C@@H]21` [Har, harpagoside], the Kd in assay [2] amounted to 86.1 µM.

The record behind these values is paper PMC8832557 (Cell Metabolism, 2022).
